Results taken from patent US11096929B2 (Ovid Therapeutics Inc., priority 2015, dated 2021).
“Also recorded” adds a separate entry of the source.

Key:
[1] = test system: healthy, male and female subjects; experiment: Driving performance (real driving on the road) after evening and middle of the night dosing; type: in vivo, human; settings: for effect on driving / effect on memory test, body sway, DSST or critical tracking: gaboxadol 15 mg; for effect on driving: driving test at 9 am; for effect on memory test, body sway, DSST or critical tracking: cognitive and psychomotor test battery; for tolerability / most frequent adverse events: 15 mg
Excerpt: The study participants included healthy, male and female subjects between 21 and 45 years of age, with a valid drivers license for at least 3 years.
Following a cognitive and psychomotor test battery, the driving test started at 9 am and lasted for one hour.

[2] = test system: healthy elderly male and female subjects; settings: in vivo
[3] = test system: healthy adults subjected to a 5-hour sleep restriction; experiment: Daytime performance after sleep restriction (MSLT, SWS, KSS, neurobehavioral battery); type: in vivo, human
Method: The study included a 2-night single-blind placebo run-in period, a 4-night double-blind treatment period during which sleep was restricted to 5 hours and a 2-night single-blind placebo run-out period. The study included healthy male and female volunteers 18 to <55 years of age.
2-night run-in period: All patients received placebo ?
2-night run-out period: All patients received placebo
The primary endpoints included observations based on the Multiple Sleep Latency Test (MSLT) and Slow Wave Sleep (SWS) assessment.

[4] = test system: subjects with Angelman syndrome; experiment: Clinical Global Impressions (CGI-S, CGI-I) in 12-week placebo-controlled Angelman syndrome trial; type: in vivo, human; settings: for percentage very much improved on CGI-I: QD group; for responders (one point or greater improvement in the CGI-I scale): once daily dose
Excerpt: CGI-S scale assessed all sub-domains of Angelman syndrome (gross and fine motor ability, sleep, and adaptive behavior) plus globally by the investigator. […] The Clinical Global Impressions-Improvement (CGI-I) scale was used to assess all sub-domains of Angelman syndrome (gross and fine motor ability, sleep, and adaptive behavior) plus globally by the investigator and caregiver. CGI-I is a 7-point scale in which the investigator rates the improvement or worsening of symptoms compared to baseline.

[5] = test system: subjects with Angelman syndrome; experiment: Sleep diary in 12-week placebo-controlled Angelman syndrome trial; type: in vivo, human; settings: for 6-week LS Mean sleep time (total sleep time at night) / 12-week LS Mean sleep time (total sleep time at night): sleep diary
Method: This multicenter, randomized, parallel (3-arm), double-blind, placebo-controlled trial enrolled 88 patients including adults (n=66) and adolescents (n=22) aged 13 to 49 years of age, diagnosed with Angelman syndrome. […] The dosing schedules that were assessed against placebo were once daily (QD): An evening dose titrated to the target dose of 15 mg unless not tolerated; and twice daily (BID): Evening and morning doses titrated to the target doses of 15 mg evening dose and 10 mg morning dose unless not tolerated.
The observed and change from baseline in total hours of sleep time at night (assessed from subject Sleep Diary) is provided in Table III.

[6] = test system: subjects with Angelman syndrome; experiment: Adverse events in 12-week placebo-controlled Angelman syndrome trial; type: in vivo, human
insomnia = settings: three-month efficacy study; cited from earlier work
[7] = test system: Purkinje cells in cerebellar brain slices; settings: low doses; cited from earlier work
Ube3a-deficient mice = settings: low doses; Ube3a-deficient mice in vivo; cited from earlier work
[8] = test system: patients with a history of drug abuse; settings: cited from earlier work
[9] = Plasma concentration profiles, dose proportionality and absolute bioavailability of gaboxadol after single oral doses and 10 mg IV; settings: geometric mean, N = 10
[10] = middle-of-the-night (4 am) administration, zolpidem 10 mg
[11] = BID dosing (10 mg morning, 15 mg evening), N = 29

In the case of `Cc1ccc(-c2nc3ccc(C)cn3c2CC(=O)N(C)C)cc1` [zolpidem], the effect on driving [1, 10] is reported as “numerically greater effect”.
With `CCN(CC)CCN1C(=O)CN=C(c2ccccc2F)c2cc(Cl)ccc21` [Flurazepam] the “residual effect on primary endpoints Choice Reaction Time and Critical Flicker Fusion” value [2] was “showed significant effect”.
In the case of `Oc1noc2c1CCNC2` [gaboxadol, 4,5,6,7-tetrahydroisoxazolo [5,4-c]pyridine-3-ol], the “effect on memory test, body sway, DSST or critical tracking” value ([1]; zopiclone 7.5 mg) is reported as “no effect”, the tolerability ([1]; evening dose) is reported as “well tolerated” and the “most frequent adverse events” value ([1]; evening treatment) is reported as “headache and somnolence”. For the same molecule, the “effect on driving compared with alcohol” value ([1]; gaboxadol 15 mg evening dose vs 0.05% blood alcohol concentration) was “less than the effect observed at a 0.05% blood alcohol concentration”, the effect on driving [1, 10] was “clinically relevant impairing effect” and the tolerability ([1]; middle-of-the-night dose) was “well tolerated”. For the same molecule, the “most frequent adverse events” value ([1]; middle-of-the-night treatment) was “dizziness, nausea and somnolence”, the “biophysiological measures of stress (heart rate variability, cortisol levels, catecholamine levels, body temperature) vs placebo” value ([3]; 15 mg vs placebo) was “no differences” and the “daytime performance, effect sizes for the neurocognitive battery” value ([3]; 15 mg vs placebo) was “no strong evidence that gaboxadol improves daytime performance”. For the same molecule, the “subjective daytime sleepiness vs placebo” value ([3]; 15 mg, Sleep Restriction period) was “trend towards less subjective daytime sleepiness”, the “amount of slow wave sleep (SWS) vs placebo” value ([3]; 15 mg, Sleep Restriction period, p<0.001, 1 sided) was “increases the amount of slow wave sleep; also recorded: significantly more SWS” and the “daytime sleepiness (sleep propensity by MSLT) vs placebo” value ([3]; 15 mg, Sleep Restriction period, p=0.047, 1 sided) was “protective effect on reducing daytime sleepiness; also recorded: significantly less daytime sleepiness”. The “MSLT longer than placebo, average” value ([3]; 15 mg, last two Sleep Restriction days) was 2.01 min, the “Karolinska Sleepiness Score (KSS) less than placebo, average” value ([3]; 15 mg, last two Sleep Restriction days, p=0.058, 1 sided, LDA model) was 0.68 and the “SWS longer than placebo, average” value ([3]; 15 mg, last two Sleep Restriction nights) was 20.53 min. The “CGI-I 6-week LS Mean” value [4, 11] was 3.54 (0.16), the “CGI-I 12-week LS Mean” value [4, 11] was 3.58 (0.16) and the “CGI-I 6-week LS Mean difference” value ([4]; BID dosing minus placebo) was −0.06 (0.21). For the same molecule, the “CGI-I 12-week LS Mean difference” value ([4]; BID dosing minus placebo) was −0.21 (0.22), the “CGI-I 6-week LS Mean” value ([4]; Combined QD and BID, N = 58) was 3.45 (0.12) and the “CGI-I 12-week LS Mean” value ([4]; Combined QD and BID, N = 58) was 3.29 (0.12). The “CGI-I 6-week LS Mean difference” value ([4]; Combined minus placebo) was −0.15 (0.18), the “CGI-I 12-week LS Mean difference” value ([4]; Combined minus placebo) was −0.49 (0.19) and the “CGI-I 6-week LS Mean” value ([4]; QD dosing (15 mg evening), N = 29, 7-point scale, clinician assessed) was 3.54 (0.16). For the same molecule, the “CGI-I 6-week LS Mean difference” value ([4]; QD dosing minus placebo) was −0.24 (0.21), the “CGI-I 12-week LS Mean difference” value ([4]; QD dosing minus placebo) was −0.78 (0.22) and the “percentage very much improved on CGI-I” value ([4]; 18-24 year old, placebo 9%) was 27%. For the same molecule, the “percentage very much improved on CGI-I” value ([4]; oldest cohort (25-49), placebo 11%) was 20%, the “percentage very much improved on CGI-I” value ([4]; youngest cohort (13-17), placebo 0%) was 33% and the “CGI-S Hyperactivity, change” value ([4]; QD, placebo 3.1 to 3.0) was 3.5 to 2.9. The “CGI-S Stereotypic behavior, change” value ([4]; QD, placebo 3.3 to 3.6) was 3.7 to 3.1, the “responders (one point or greater improvement in the CGI-I scale) in overall symptoms” value ([4]; once daily dose cohort, all ages, placebo 26%) was 70% and the “responders (one point or greater improvement in the CGI-I scale)” value ([4]; 13-17 year old, placebo 29%) was 83%. The “responders (one point or greater improvement in the CGI-I scale)” value ([4]; 18-24 year old, placebo 27%) was 73%, the “responders (one point or greater improvement in the CGI-I scale)” value ([4]; 25-49 year old, placebo 22%) was 60% and the “6-week LS Mean difference, sleep time” value ([5]; BID dosing) was 0.30 (1.1) hours. For the same molecule, the “12-week LS Mean difference, sleep time” value ([5]; BID dosing) was 0.18 (0.97) hours, the “6-week LS Mean sleep time (total sleep time at night)” value (from here on “6-week LS Mean sleep time”) ([5]; BID dosing, N = 29) was 8.95 (1.1) hours and the “12-week LS Mean sleep time (total sleep time at night)” value (from here on “12-week LS Mean sleep time”) ([5]; BID dosing, N = 29) was 8.84 (1.1) hours. For the same molecule, the “6-week LS Mean difference, sleep time” value ([5]; Combined) was 0.22 (0.94) hours, the “12-week LS Mean difference, sleep time” value ([5]; Combined) was 0.07 (1.0) hours and the “6-week LS Mean sleep time” value ([5]; Combined, N = 58) was 8.93 (1.3) hours. For the same molecule, the “12-week LS Mean sleep time” value ([5]; Combined, N = 58) was 8.80 (1.1) hours, the “6-week LS Mean difference, sleep time” value ([5]; QD dosing) was 0.14 (0.81) hours and the “12-week LS Mean difference, sleep time” value ([5]; QD dosing) was −0.04 (1.1) hours. For the same molecule, the “6-week LS Mean sleep time” value ([5]; QD dosing, N = 29) was 8.91 (1.5) hours, the “12-week LS Mean sleep time” value ([5]; QD dosing, N = 29) was 8.76 (1.2) hours and the “subjects with Abdominal Pain upper, number (%)” value ([6]; BID dosing, N = 29) was 0. For the same molecule, the “subjects with At least 1 Adverse Event, number (%)” value ([6]; BID dosing, N = 29) was 19 (66%), the “subjects with Diarrhea, number (%)” value ([6]; BID dosing, N = 29) was 1 (3.4%) and the “subjects with Gastrointestinal disorders, number (%)” value ([6]; BID dosing, N = 29) was 4 (13.8%). For the same molecule, the “subjects with Nausea, number (%)” value ([6]; BID dosing, N = 29) was 2 (6.9%), the “subjects with Retching, number (%)” value ([6]; BID dosing, N = 29) was 1 (3.4%) and the “subjects with Vomiting, number (%)” value ([6]; BID dosing, N = 29) was 1 (3.4%). The “subjects with Abdominal Pain upper, number (%)” value ([6]; Combined, N = 58) was 0, the “subjects with At least 1 Adverse Event, number (%)” value ([6]; Combined, N = 58) was 37 (64%) and the “subjects with Diarrhea, number (%)” value ([6]; Combined, N = 58) was 1 (1.7%). For the same molecule, the “subjects with Gastrointestinal disorders, number (%)” value ([6]; Combined, N = 58) was 4 (6.9%), the “subjects with Nausea, number (%)” value ([6]; Combined, N = 58) was 2 (3.4%) and the “subjects with Retching, number (%)” value ([6]; Combined, N = 58) was 1 (1.7%). The “subjects with Vomiting, number (%)” value ([6]; Combined, N = 58) was 1 (1.7%), the “subjects with Abdominal Pain upper, number (%)” value ([6]; QD dosing, N = 29) was 0 and the “subjects with At least 1 Adverse Event, number (%)” value ([6]; QD dosing, N = 29) was 18 (62%). The “subjects with Diarrhea, number (%)” value ([6]; QD dosing, N = 29) was 0, the “subjects with Nausea, number (%)” value ([6]; QD dosing, N = 29) was 0 and the “subjects with Retching, number (%)” value ([6]; QD dosing, N = 29) was 0. For the same molecule, the “subjects with Vomiting, number (%)” value ([6]; QD dosing, N = 29) was 0, the “subjects with Gastrointestinal disorders, number (%)” value ([6]; QD dosing, N = 29, placebo 6 of 29) was 0 and the “residual effect on primary endpoints Choice Reaction Time and Critical Flicker Fusion” value [2] was “did not show residual effect”. The “residual effects on other measurements (MSLT, DSST, Tracking, Memory tests, Body Sway, Leeds Sleep Evaluation Questionnaire)” value [2] was “did not show any signs of residual effects”, the “effects in sleep onset and sleep maintenance” value (insomnia) was “failed to show significant effects” and the “abnormal firing properties of a population of Purkinje cells” value [7] was “improve the abnormal firing properties”. The cerebellar ataxia (Ube3a-deficient mice) was “reduces cerebellar ataxia”, the psychiatric adverse events [8] was “steep increase in psychiatric adverse events” and the Fe ([9]; 2.5 mg single oral dose) was 43%. For the same molecule, the Fe ([9]; 5 mg single oral dose) was 45%, the Fe ([9]; 10 mg I.V.) was 53% and the Fe ([9]; 10 mg Oral) was 53%. It also gave a Fe ([9]; 15 mg single oral dose) of 50% and a Fe ([9]; 20 mg single oral dose) of 53%.
In the case of `CN1CCN(C(=O)OC2c3nccnc3C(=O)N2c2ccc(Cl)cn2)CC1` (stereo not drawn) [zopiclone], the “effect on memory test, body sway, DSST or critical tracking” value ([1]; zopiclone 7.5 mg) is reported as “had effect on several of these tests” and the effect on driving ([1]; evening dose, zopiclone 7.5 mg) is reported as “numerically greater effect”.
